Here are results for 17 compounds from US5049547A, “Composition for stimulating integumental melanocytes” (University Patents, Inc., priority 1989, dated 1991).

For one data set, the system named is frog (Rana pipiens) skin. It is filed as cell-based. The method, then:
(§1) Biological effect on in vivo and in vitro melanosome dispersion was examined using the frog (Rana pipiens) and the lizard (Anolis caroliniensis). [Hadley et al., ,Science 213:1025-1027(1981)]; similar examinations were conducted with respect to the duration of its ability to stimulate melanosome dispersion in vitro using the skin bioassay as described in Shimume, Endrochrinology, 54:553-560(1954). The in vitro results are depicted in Table I.

Data set [1] has as its system lizard (Anolis caroliniensis) skin. The experiment in a line: in vitro lizard skin bioassay, melanosome dispersion. It counts as cell-based. Particulars: alpha-MSH = 1.0. The method, then: as §1
For data set [2], the system named is TA-98 strain of S. typhimurium. In words: Ames microbacterial assay. As to conditions: spontaneous revertants subtracted. The method, then:
The Ames microbacterial assay was used for these tests which were performed both with and without a microsomal enzyme/NADPH generating system. Briefly, this test measures the number of reverse mutations which occur in special histidine-dependent strains of Salmonella typhimurium. Positives (mutations) are scored as the number of revertant cells which are able to form colonies in a histidine-deficient growth medium after exposure to a mutagenic substance.
All substances were dissolved in sterile 0.9% sodium chloride (without preservatives) to concentrations of 10^-2, 10^-3 and 10^-4 Molar. The TA-98 strain of S. typhimurium was used and experiments were performed with and without exposure to S-9 rat liver microsomal enzymes and an NADPH generating system. This enzyme cocktail can metabolically activate some compounds to mutagenic species. In addition to the melanotropins, doxorybicin (Adriamycin™) was also simultaneously tested. […] It was thus included to act as a positive control. […] For the actual evalution of revertants, the identity of the specific test compounds was blinded.

Where “and” joins values, the source holds several entries; their conditions need not be identical. Equal values may be shown once. Read-outs that look alike come from different tables or passages of the source. Non-standard residues stand in square brackets, D forms with d. Residues, ends and D or L forms follow the SMILES beside them. dPhg = N[C@@H](C(=O)O)c1ccccc1; Nle = CCCC[C@H](N)C(=O)O

Turning to `CC(=O)N[C@@H](CCC(=O)O)C(=O)N[C@@H](Cc1c[nH]cn1)C(=O)N[C@H](Cc1ccccc1)C(=O)N[C@@H](CCCNC(=N)N)C(=O)N[C@@H](Cc1c[nH]c2ccccc12)C(=O)NCC(=O)N[C@@H](CCCCN)C(N)=O` [Ac-[D-Phe^7]-alpha-MSH5-11 -NH2] (Ac-EH[dF]RWGK-NH2), the “Relative Potency Frog” value with frog (Rana pipiens) skin (in vitro, alpha-MSH = 1.0) is listed as 0.01.

With `CCCC[C@H](NC(C)=O)C(=O)N[C@@H](CCC(=O)O)C(=O)N[C@@H](Cc1c[nH]cn1)C(=O)N[C@@H](C)C(=O)N[C@@H](CCCNC(=N)N)C(=O)N[C@@H](Cc1c[nH]c2ccccc12)C(=O)NCC(=O)N[C@@H](CCCCN)C(N)=O` [Ac-[Nle^4 -Ala^7]-alpha-MSH4-11 -NH2] (Ac-[Nle]EHARWGK-NH2), the “Relative Potency Frog” value in the data set with frog (Rana pipiens) skin is given as 0.02. Consider `CCCC[C@H](NC(C)=O)C(=O)N[C@@H](CCC(=O)O)C(=O)N[C@@H](Cc1c[nH]cn1)C(=O)N[C@H](C)C(=O)N[C@@H](CCCNC(=N)N)C(=O)N[C@@H](Cc1c[nH]c2ccccc12)C(=O)NCC(=O)N[C@@H](CCCCN)C(N)=O` [Ac-[Nle^4 -D-Ala^7]-alpha-MSH4-11 -NH2] (Ac-[Nle]EH[dA]RWGK-NH2), for which the “Relative Potency Frog” value in the data set on frog (Rana pipiens) skin (in vitro, alpha-MSH = 1.0) was 0.000080. Besides, in data set [1], the “Relative Potency Lizard” value is recorded as 0.020. Consider `CCCC[C@H](NC(C)=O)C(=O)N[C@@H](CCC(=O)O)C(=O)N[C@@H](Cc1c[nH]cn1)C(=O)N[C@@H](Cc1ccccc1)C(=O)N[C@H](CCCNC(=N)N)C(=O)N[C@@H](Cc1c[nH]c2ccccc12)C(=O)NCC(=O)N[C@@H](CCCCN)C(N)=O` [Ac-[Nle^4 -D-Arg^8]-alpha-MSH4-11 -NH2] (Ac-[Nle]EHF[dR]WGK-NH2), for which the “Relative Potency Frog” value with frog (Rana pipiens) skin (in vitro, alpha-MSH = 1.0) was found to be 0.000016. The “Relative Potency Lizard” value in data set [1] is on record as 0.0022. On the same counts, the results for `CCCC[C@H](NC(C)=O)C(=O)N[C@@H](CCC(=O)O)C(=O)N[C@@H](Cc1c[nH]cn1)C(=O)N[C@H](Cc1ccccc1)C(=O)N[C@@H](CCCNC(=N)N)C(=O)N[C@H](Cc1c[nH]c2ccccc12)C(N)=O` [Ac-[Nle^4 -D-Phe^7 -D-Trp^9]-alpha-MSH4-9 -NH2] (Ac-[Nle]EH[dF]R[dW]-NH2) are 0.03 and 3.8.

`CCCC[C@H](NC(C)=O)C(=O)N[C@@H](CCC(=O)O)C(=O)N[C@@H](Cc1c[nH]cn1)C(=O)N[C@H](Cc1ccccc1)C(=O)N[C@@H](CCCNC(=N)N)C(=O)N[C@@H](Cc1ccccc1)C(=O)NCC(=O)N[C@@H](CCCCN)C(N)=O` [Ac-[Nle^4 -D-Phe^7 -Phe^9]-alpha-MSH4-11 -NH2] (Ac-[Nle]EH[dF]RFGK-NH2): in the data set with frog (Rana pipiens) skin (in vitro, alpha-MSH = 1.0), the “Relative Potency Frog” value is given as 0.017.

As for `CCCC[C@H](NC(C)=O)C(=O)N[C@@H](CCC(=O)O)C(=O)N[C@@H](Cc1c[nH]cn1)C(=O)N[C@H](Cc1ccccc1)C(=O)N[C@@H](CCCNC(=N)N)C(=O)N[C@@H](Cc1c[nH]c2ccccc12)C(=O)NCC(N)=O` [Ac-[Nle^4 -D-Phe^7]-alpha-MSH4-10 -NH2], in the data set with frog (Rana pipiens) skin (in vitro, alpha-MSH = 1.0), the “Relative Potency Frog” value amounted to 0.02. The “REVERTANTS PER PLATE WITH S-9” value in data set [2] (10^-2 M), in data set [2] (10^-3 M) and in data set [2] (10^-4 M) was 0 each time. Besides, the “[…] PLATE WITHOUT S-9” value in data set [2] (10^-2 M), in data set [2] (10^-3 M) and in data set [2] (10^-4 M) was 0 in each case.

Take `CCCC[C@H](NC(C)=O)C(=O)N[C@@H](CCC(=O)O)C(=O)N[C@@H](Cc1c[nH]cn1)C(=O)N[C@@H](C(=O)N[C@@H](CCCNC(=N)N)C(=O)N[C@@H](Cc1c[nH]c2ccccc12)C(=O)NCC(=O)N[C@@H](CCCCN)C(N)=O)c1ccccc1` [Ac-[Nle^4 -D-Plg^7]-alpha-MSH4-11 -NH2] (Ac-[Nle]EH[dPhg]RWGK-NH2): the “Relative Potency Frog” value in the data set on frog (Rana pipiens) skin (in vitro, alpha-MSH = 1.0) stood at 0.0003. In addition, in data set [1], the “Relative Potency Lizard” value turned out to be 0.0005. Take `CCCC[C@H](NC(C)=O)C(=O)N[C@@H](CCC(=O)O)C(=O)N[C@@H](Cc1c[nH]cn1)C(=O)N[C@H](Cc1ccc(O)cc1)C(=O)N[C@@H](CCCNC(=N)N)C(=O)N[C@@H](Cc1c[nH]c2ccccc12)C(=O)NCC(=O)N[C@@H](CCCCN)C(N)=O` [Ac-[Nle^4 -D-Tyr^7]-alpha-MSH4-11 -NH2] (Ac-[Nle]EH[dY]RWGK-NH2): the “Relative Potency Frog” value in the data set on frog (Rana pipiens) skin (in vitro, alpha-MSH = 1.0) was 0.0020 and 0.0033. Moreover, the “Relative Potency Lizard” value in data set [1] was 1.0. As for `CCCC[C@H](NC(C)=O)C(=O)N[C@@H](CCC(=O)O)C(=O)N[C@@H](Cc1ccccc1)C(=O)N[C@H](Cc1ccccc1)C(=O)N[C@@H](CCCNC(=N)N)C(=O)N[C@@H](Cc1c[nH]c2ccccc12)C(=O)NCC(=O)N[C@@H](CCCCN)C(N)=O` [Ac-[Nle^4 -Phe^6 -D-Phe^7]-alpha-MSH4-11 -NH2] (Ac-[Nle]EF[dF]RWGK-NH2), in the data set on frog (Rana pipiens) skin (in vitro, alpha-MSH = 1.0), the “Relative Potency Frog” value is listed as 0.012. Regarding `CCCC[C@H](NC(C)=O)C(=O)N[C@@H](CCC(=O)O)C(=O)N[C@@H](Cc1c[nH]cn1)C(=O)N[C@@H](Cc1ccc(O)cc1)C(=O)N[C@@H](CCCNC(=N)N)C(=O)N[C@@H](Cc1c[nH]c2ccccc12)C(=O)NCC(=O)N[C@@H](CCCCN)C(N)=O` [Ac-[Nle^4 -Tyr^7]-alpha-MSH4-11 -NH2] (Ac-[Nle]EHYRWGK-NH2), the “Relative Potency Lizard” value in data set [1] came to 0.0090. Take `CCCC[C@H](NC(C)=O)C(=O)N[C@@H](CCC(=O)O)C(=O)N[C@@H](Cc1c[nH]cn1)C(=O)N[C@@H](Cc1ccccc1)C(=O)N[C@@H](CCCNC(=N)N)C(=O)N[C@@H](Cc1c[nH]c2ccccc12)C(=O)NCC(=O)N[C@@H](CCCCN)C(N)=O` [Ac-[Nle^4 ]-alpha-MSH4-11 -NH2] (Ac-[Nle]EHFRWGK-NH2): the “Relative Potency Frog” value with frog (Rana pipiens) skin (in vitro, alpha-MSH = 1.0) was 0.0019. Take `CCCC[C@H](NC(C)=O)C(=O)N[C@@H](CCC(=O)O)C(=O)N[C@@H](Cc1c[nH]cn1)C(=O)N[C@@H](Cc1ccccc1)C(=O)N[C@@H](CCCNC(=N)N)C(=O)N[C@@H](Cc1c[nH]c2ccccc12)C(N)=O` [Ac-[Nle^4]-alpha-MSH4-9 -NH2] (Ac-[Nle]EHFRW-NH2): in the data set on frog (Rana pipiens) skin (in vitro, alpha-MSH = 1.0), the “Relative Potency Frog” value stood at 0.0007. Moreover, the “Relative Potency Lizard” value in data set [1] turned out to be 0.18. For `CC(=O)N[C@@H](Cc1ccc(O)cc1)C(=O)N[C@@H](CCC(=O)O)C(=O)N[C@@H](Cc1c[nH]cn1)C(=O)N[C@H](Cc1ccccc1)C(=O)N[C@@H](CCCNC(=N)N)C(=O)N[C@@H](Cc1c[nH]c2ccccc12)C(=O)NCC(=O)N[C@@H](CCCCN)C(N)=O` [Ac-[Tyr^4 -D-Phe^7]-alpha-MSH4-11 -NH2] (Ac-YEH[dF]RWGK-NH2), the “Relative Potency Frog” value in the data set on frog (Rana pipiens) skin (in vitro, alpha-MSH = 1.0) was determined as 0.01. For the compound `COc1cccc2c1C(=O)c1c(O)c3c(c(O)c1C2=O)C[C@@](O)(C(=O)CO)C[C@@H]3O[C@H]1C[C@H](N)[C@H](O)[C@H](C)O1` [Adriamycin, Doxorubicin, reference compound], in data set [2] (10 µg/ml), the “[…] PLATE WITH S-9” value stood at 2500 and the “[…] PLATE WITHOUT S-9” value is listed as 230. Further, in data set [2] (1.0 g/ml), the “[…] PLATE WITH S-9” value is on record as 100 and the “[…] PLATE WITHOUT S-9” value was 0.

Consider “Ac-[Nle^4 -D-Phe^7 -D-Arg^8 ]-alpha-MSH4-”, for which the “Relative Potency Lizard” value in data set [1] was 0.0022. With Ac-[Phe-Gly^7 ]-alpha-MSH4-11 -NH2, the “Relative Potency Frog” value in the data set with frog (Rana pipiens) skin (in vitro, alpha-MSH = 1.0) was 0.10.
